Like-named read-outs stand apart in the source and are kept apart here.
Tests used:
[1] = test system: mitochondria-associated CA5; assay: Binding to CA5
[2] = test system: MN-expressing MaTu cells; assay: FACS cell binding, MaTu cells; type: cell-based, human
[3] = test system: MaTu human mammary carcinoma xenograft; conditions: for tumors showing signs of re-growth: ˜3 months after cessation, 10 mice per group; for animals remained tumor-free: ˜90 days after cessation
Method: Anti-MN antibodies were conjugated to cytotoxic small molecules using protocols that are known in the art (e.g., Liu, et al., Proc. Natl. Acad. Sci. 93:8618-8623, 1996). Human mammary xenograft, MaTu cells were maintained as adherent cultures in RPMI supplemented with 10% FBS. Ncr nude mice (8-12 weeks of age) were inoculated subcutaneously in the right flank with 5×10^6 cells in 0.1 mL of 80% matrigel/20% HBSS. When tumors reached an average size of ˜180 mg (6 days), treatment was initiated. Monoclonal antibodies conjugated to cytotoxic small molecules were administered i.v. once every four days (Q4Dx3) at a dose of 10 mg/kg. Control mice were treated with PBS or an unconjugated monoclonal antibody. Daily examinations into the health status of each animal were conducted. Each experimental group consisted of 10 mice and the dosing volume was 0.1 mL/10 g body weight. The length and width of each tumor was measured by using an electronic caliper 2-3 times per week and tumor weights (mg) were calculated based on the formula of [length (mm)×width (mm)^2]/2. All data, including daily observations, obtained throughout the course of the study were documented. Tumor growth inhibition (TGI) was calculated as 1−T/C×100, where T=final tumor weights from a treated group, and C=final tumor weights from the control group.
The in vivo anti-tumor effect of 3ee9/MMAE was examined in 6 different human xenograft tumor models. These models were established through subcutaneous implantation of human tumor cells into female athymic NCr (nu/nu) mice (Taconic, N.Y.). The human tumor xenograft models evaluated included the MaTu human mammary carcinoma model, the HT-29 and Colo-205 human colo-rectal carcinoma (CRC) models, PC3MM2 prostate carcinoma model, the HCT-15 multi-drug resistant (P-gp) CRC model, and the MiaPaCa2 human pancreatic model. PBS was used as a vehicle, and dosing solutions were prepared fresh daily. The dosing volume was 0.1 mL/10 g (10 mL/kg).
The length and width of each tumor were measured using an electronic caliper 2-3 times per week, and tumor weights (mg) were calculated based on the formula of [length (mm)×width (mm)^2]/2. All data, including daily observations, obtained throughout the course of the study were documented in Anti-tumor Data Acquisition System (ADAS). […] Tumor growth inhibition (TGI) was calculated as (1-T/C)×100, where T=final tumor weights from a treated group after the last dose, and C=final tumor weights from the control group after the last dose. In addition, anti-tumor efficacy was measured as the incidence of responses (or responders or regressions) defined as tumors with ≦50% of their initial size. A minimum duration of 7 days is required for a response to be considered durable.
Human mammary xenograft, MaTu cells were maintained as adherent cultures in RPMI supplemented with 10% FBS. NCr nude mice (8-12 weeks of age) were inoculated subcutaneously in the right flank with 5×10^6 cells in 0.1 mL of 80% matrigel/20% HBSS. When tumors reached an average size of ˜180 mg (7 days), treatment was initiated. […] Control mice were treated with PBS or an un-conjugated monoclonal antibody at a dose of 10 mg/kg.
Daily examinations into the health status of each animal were conducted. Each experimental group consisted of 10 mice, and the dosing volume was 0.1 mL/10 g body weight. The length and width of each tumor was measured by using an electronic caliper 2-3 times per week, and tumor weights (mg) were calculated based on the formula of [length (mm)×width (mm)^2]/2. All data, including daily observations, obtained throughout the course of the study were documented. Tumor growth inhibition (TGI) was calculated as 1−T/C×100, where T=final tumor weights from a treated group, and C=final tumor weights from the control group.

[4] = test system: PC3 mm2 human prostate tumor xenograft; assay: PC3 mm2 subcutaneous xenograft model; type: in vivo, NCr nu/nu mice; conditions: for animals showing responses: PC3MM2
Method: The in vivo anti-tumor effect of 3ee9/MMAE was examined in 6 different human xenograft tumor models. These models were established through subcutaneous implantation of human tumor cells into female athymic NCr (nu/nu) mice (Taconic, N.Y.). […] PBS was used as a vehicle, and dosing solutions were prepared fresh daily. The dosing volume was 0.1 mL/10 g (10 mL/kg).
The length and width of each tumor were measured using an electronic caliper 2-3 times per week, and tumor weights (mg) were calculated based on the formula of [length (mm)×width (mm)^2]/2. […] Tumor growth inhibition (TGI) was calculated as (1-T/C)×100, where T=final tumor weights from a treated group after the last dose, and C=final tumor weights from the control group after the last dose. In addition, anti-tumor efficacy was measured as the incidence of responses (or responders or regressions) defined as tumors with ≦50% of their initial size. A minimum duration of 7 days is required for a response to be considered durable.
The anti-tumor activity of 3ee9/MMAE was next evaluated against human prostate (PC-3 mm2) and CRC (Colo-205) tumor xenografts. Female NCr nu/nu mice were implanted subcutaneously (s.c.) either with 5×10^6 PC3 mm2 or Colo-205 cells. Treatment was initiated when tumors were of an average size of approximately 125-150 mg. The general health of mice was monitored and recorded daily. Tumor dimensions and body weights were recorded twice a week starting with the first day of treatment.
In the PC3 mm2 and Colo-205 studies, 3ee9/MMAE was administered intravenously (i.v.) once every 4th day for a total of 3 injections (Q4Dx3) at doses of 1, 3, 10 and 30 mg/kg and 1.25, 2.5, 5 and 10 mg/kg, respectively.

[5] = test system: high MN-expressing huMN-MIAPaCa2 xenograft; assay: huMN-MIAPaCa2 xenograft model; type: in vivo, mice; conditions: for TGI: end of dosing
Method: To better understand the relationship between MN expression and antitumor efficacy, xenograft efficacy studies were conducted using a low MN-expressing pancreatic model, MIAPaCa2 and high MN-expressing huMN-MIAPaCa2 model. This latter line was derived by engineering the MIAPaCa2 line to stably express MN. […] 3ee9/MMAE dosed at 10 mg/kg only produced 50% TGI.

[6] = test system: tubulin in HT-29 tumors; assay: In vivo mechanism of action, immunohistochemistry of HT-29 tumors; set-up: species or system athymic mice
Method: To explore the in vivo mechanism of action of 3ee9/MMAE, tumors were implanted subcutaneously at right flank of the mice with 5×10^6 HT-29 cells. Eight days later, athymic mice bearing HT-29 tumors were treated with vehicle or with 3ee9/MMAE at 1.25 and 5 mg/kg (Q1Dx1). Tumors were collected and fixed in formalin 4 hours and 1, 3 and 5 hours following administration of 3ee9/MMAE. Samples were then embedded in paraffin, sectioned at 5 μm, de-paraffinized, and stained using standard protocol for fluorescent immunohistochemistry of human tissues using mouse antibodies: Anti-α/β-tubulin, Anti-phospho-Histone H3, and DNA. The slides were then observed under a fluorescent microscope, and representative images were taken through three separate color channels.
3ee9/MMAE had little effect in affecting cell mechanism in the 4 hr samples. […] In addition, decreased level of tubulin staining could be observed. These effects were then highly amplified in the day 3 and day 5 samples.

“3ee9/MMAE: human anti-MN IgG1 antibody 3ee9 conjugated to Monomethylauristatin E (MMAE)” was tested, and the “binding to CA5” value [1] was “Binding to mitochondria-associated CA5 was observed”, the “cell binding by FACS” value [2] was “bind to MN-expressing MaTu cells” and the body weight loss ([3]; 60 mg/kg i.v. Q4Dx3) was about 20%. For the same substance, the lethality ([3]; 60 mg/kg i.v. Q4Dx3) was 10%, the “maximum tolerated dose (MTD)” value ([3]; MaTu tumor-bearing mice, i.v. Q4Dx3) was 60 mg/kg and the “therapeutic index (MTD divided by MED)” value ([3]; MaTu xenograft) was about 96. The tumor regression ([3]; MaTu, 0.625 mg/kg Q4Dx3) was “No tumor regression”, the “inhibition of tumor growth” value ([3]; MaTu, 0.625 mg/kg Q4Dx3, end of dosing) was 62% and the “time tumors remained stable after cessation of treatment” value ([3]; MaTu, 1 mg/kg Q4Dx3) was about 2 weeks. The “tumors responsive to treatment” value ([3]; MaTu, 1 mg/kg Q4Dx3) was 30%, the TGI ([3]; MaTu, 1 mg/kg i.v. Q4Dx3, end of dosing) was 67% and the “animals exhibiting tumor regressions” value ([3]; MaTu, 1.25 mg/kg Q4Dx3) was 80%. For the same substance, the “inhibition of tumor growth” value ([3]; MaTu, 1.25 mg/kg Q4Dx3, end of dosing) was 81%, the “animals responded to treatment” value ([3]; MaTu, 2.5 mg/kg and higher Q4Dx3) was 100% and the TGI ([3]; MaTu, 3 mg/kg i.v. Q4Dx3, end of dosing) was 72%. The “tumors showing signs of re-growth” value ([3]; MaTu, 3 mg/kg) was 3 tumors, the animals remained tumor-free ([3]; MaTu, 3 mg/kg) was 70% and the TGI ([3]; MaTu, 10 mg/kg i.v. Q4Dx3, end of dosing) was 78%. For the same substance, the “tumors showing signs of re-growth” value ([3]; MaTu, 10 mg/kg) was 1 tumors, the animals remained tumor-free ([3]; MaTu, 10 mg/kg) was 90% and the tolerability ([3]; MaTu, 1, 3 and 10 mg/kg i.v. Q4Dx3) was “well-tolerated at all doses examined”. For the same substance, the “inhibition of tumor growth” value ([3]; MaTu, 2.5, 5, 10, 30 and 60 mg/kg Q4Dx3) was about 90%, the animals responded ([3]; MaTu, 3 and 10 mg/kg Q4Dx3) was 100% and the “minimum efficacious dose (MED)” value ([3]; MaTu, i.v. Q4Dx3) was 0.625 mg/kg. For the same substance, the “In vivo activity: MED” value ([3]; Table 4 profile) was 1 mg/kg, the “In vivo activity: MTD” value ([3]; Table 4 profile) was 60 mg/kg and the tolerability ([3]; all other treatment groups (0.625 to 30 mg/kg) Q4Dx3) was “well tolerated”. For the same substance, the anti-tumor effects ([4]; PC3-mm2 human prostate xenograft model) was “anti-tumor effects were seen”, the animals showing responses ([4]; 3 mg/kg) was 20% and the animals showing responses ([4]; 10 and 30 mg/kg i.v. Q4Dx3) was 100%. The tolerability ([4]; PC3 mm2 (1, 3, 10, 30 mg/kg) and Colo-205 (1.25, 2.5, 5, 10 mg/kg) studies, i.v. Q4Dx3) was “well tolerated at all doses evaluated”, the TGI ([5]; 2.5 mg/kg) was 63% and the TGI ([5]; 5 mg/kg) was 82%. For the same substance, the responses ([5]; 10 mg/kg) was 100%, the TGI ([5]; 10 mg/kg) was 94% and the “cells affected by treatment in tumors” value ([6]; 5 mg/kg Q1Dx1, day 5) was “almost all cells”. For the same substance, the “effect on cell mechanism in tumors” value ([6]; 1.25 and 5 mg/kg Q1Dx1, 4 hr samples) was “little effect” and the “G2/M arrest, spindle and tubulin staining in tumors” value ([6]; 1.25 and 5 mg/kg Q1Dx1, day 1) was “increased numbers of cells were in G2/M arrest”.

— patent US20120301468A1, “ANTI-MN ANTIBODIES AND METHODS OF USING SAME” (BAYER HEALTHCARE LLC, priority 2005, published 2012)
